# “And” between values parts separate entries of the source, which are not always exact repeats. Equal entries are not always repeated.
# How the values were obtained:
# [1] = test system: human primary hepatocytes; test: Metabolic disposition of [^14C]-Compound 1 and [^14C]-2′-C-methyl guanosine in human primary hepatocytes (incubation medium, cellular extracts, nucleotide levels); format: in vitro ADME; conditions: for Major metabolites observed in cellular extracts (% of total radioactivity): human hepatocytes Hu775, 1 μM [^14C]-2′-C-methyl guanosine
# Procedure: (§1) Primary hepatocytes: Freshly isolated cells from animal and human liver were obtained in suspension on ice. Cells were pelleted by centrifugation at 70-75×g (rat) or 95-90×g (monkey and human) and resuspended at 0.8 million cells per mL of platting medium (William's E supplemented with 5% FBS, 0.5% penicillin-streptomycin, 1% L-glutamine, 4 μg/mL insulin and 1 μM dexamethasone). Multi-well collagen I-coated plates (rat tail collagen type I; 12- or 6-well) were then seeded by addition of 1 mL (12-well; 0.8 million cells/well) or 2 mL (6-well; 1.6 million cells/well) of cell suspension. The plates were gently shaken to evenly distribute the cells and placed in an incubator at 37° C. for approximately 4 to 6 hours to allow cells to attach. Once cells were attached, the platting medium was removed and replaced with hepatocyte culture medium (William's E supplemented with penicillin-streptomycin, 1% L-glutamine, 1% insulin-transferrin-selenium and 0.1 μM dexamethasone). Cells were left overnight in an incubator at 37° C. to acclimatize to culture and the medium.
# (§2) Hepatocyte incubations with radiolabeled Compound 1 and 2′-C-methyl guanosine, both labeled in the C-8 position of the guanine moiety, were conducted at a final volume of 2.0 mL hepatocyte culture medium/well ([…]). Culture medium from overnight incubation of cells was removed and replaced with fresh medium, pre-warmed to 37° C., containing 1 or 10 μM [^14C]-Compound 1 ([…]) or [^14C]-2′-C-methyl guanosine (127 DPM/μmol) from a stock solution in DMSO (final DMSO concentration was 0.1%) or 50% ethanol (final ethanol concentration was 0.2%). After 1, 4, 8 and 24 hours, 0.5-1.0 mL of incubation medium was removed and stored at −20° C. until analysis (described below). The remaining medium was discarded and cell monolayers were carefully washed two times with ice-cold PBS. Following the last wash, all PBS was carefully removed and 1.0 mL of extraction solution (ice-cold 70% methanol) added. Cells were scrapped off and suspended in the extraction solution, transferred to 2 mL polypropylene microfuge tubes and intracellular contents extracted overnight at −20° C.
# (§3) Preliminary identification of putative metabolites was conducted by comparing the retention time of observed metabolites in incubation medium and cellular extracts with retention times obtained with chemically synthesized standards using the chromatography conditions described below. Further identification of 2′-C-methyl guanosine nucleotides (mono-, di- and triphosphate) was carried out by incubating cellular extract samples with alkaline phosphatase (10 units for 60 min at 37° C.) and comparing the HPLC retention times of the resulting nucleosides with that of authentic 2′-C-methyl guanosine.
# (§4) Cellular extracts were prepared by centrifugation at 16,000 RCF using an Eppendorf microcentrifuge (Eppendorf, Model 5415D) for 10 min to remove cellular debris. An aliquot of 5-10 μL of the supernatant was added to 5 mL of EcoLite™ (MP, Irvine, Calif.) liquid scintillation cocktail and radioactivity measured by liquid scintillation counting (LSC) using a Beckman Coulter LS6500 multipurpose liquid scintillation counter (Beckman Instruments, Fullerton, Calif.). The remaining sample was then dried using a Labconco refrigerated centrivap concentrator (Labconco, Kansas City, Mo.). Dry extracts were reconstituted in 120 μL of HPLC-grade water and centrifuged at 16,000 RCF using an Eppendorf microcentrifuge for 10 min. Prior to HPLC analysis (described below), radioactivity of the concentrated extracts was measured by LSC using 5 μL aliquots. Extraction recovery was then determined by comparing total radioactivity in extracts before and after drying. The remaining extract was then analyzed by HPLC with online radioactivity detection using a Flow Scintillation Analyzer Radiomatic™ 515TR. Radioactivity in the separated components was quantified by integrating the peaks using Flo-One™ Software (Perkin Elmer Life Sciences). […]
# rat primary hepatocytes = test: Metabolic disposition of [^14C]-Compound 1 and [^14C]-2′-C-methyl guanosine in rat primary hepatocytes (incubation medium, cellular extracts, nucleotide levels); format: in vitro ADME, Sprague Dawley rat
# Procedure: as §1, §2, §3, §4
# [2] = human hepatocytes (Hu775), 1 μM [^14C]-Compound 1, 1 h
# [3] = human hepatocytes (Hu775), 1 μM [^14C]-Compound 1, 8 h
# [4] = human hepatocytes (Hu775), 1 μM [^14C]-Compound 1, 24 h
# [5] = rat hepatocytes (Rs458), 1 μM [^14C]-Compound 1, 1 h
# [6] = rat hepatocytes (Rs458), 1 μM [^14C]-Compound 1, 8 h
# [7] = rat hepatocytes (Rs458), 1 μM [^14C]-Compound 1, 24 h
structure (smiles),measurement,setting,value
"C[C@@]1(O)[C@H](O)[C@@H](CO)O[C@H]1n1cnc2c(=O)[nH]c(N)nc21 [2′-C-methyl guanosine, 9-(2-C-methyl-β-D-ribofuranosyl)guanine, reference compound]",metabolites observed in cellular extracts (% of total radioactivity),"[1]; human hepatocytes (Hu759, Hu775), 10 μM [^14C]-2′-C-methyl guanosine, 1 h",97.1% and 94.9%
same,metabolites observed in cellular extracts (% of total radioactivity),"[1]; human hepatocytes (Hu759, Hu775), 10 μM [^14C]-2′-C-methyl guanosine, 4 h",87.3% and 77.3%
same,metabolites observed in cellular extracts (% of total radioactivity),"[1]; human hepatocytes (Hu759, Hu775), 10 μM [^14C]-2′-C-methyl guanosine, 8 h",73.9% and 61.4%
same,metabolites observed in cellular extracts (% of total radioactivity),"[1]; human hepatocytes (Hu759, Hu775), 10 μM [^14C]-2′-C-methyl guanosine, 24 h",52.4% and 40.2%
same,metabolites observed in cellular extracts (% of total radioactivity),"[1]; human hepatocytes (Hu759, Hu775), 10 μM [^14C]-Compound 1, 1 h",3.69% and 3.75%
same,metabolites observed in cellular extracts (% of total radioactivity),"[1]; human hepatocytes (Hu759, Hu775), 10 μM [^14C]-Compound 1, 4 h",4.20% and 3.10%
same,metabolites observed in cellular extracts (% of total radioactivity),"[1]; human hepatocytes (Hu759, Hu775), 10 μM [^14C]-Compound 1, 8 h",7.52% and 5.89%
same,metabolites observed in cellular extracts (% of total radioactivity),"[1]; human hepatocytes (Hu759, Hu775), 10 μM [^14C]-Compound 1, 24 h",10.3% and 9.06%
same,metabolites observed in medium (% of total radioactivity),"[1]; human hepatocytes (Hu775), 1 μM [^14C]-Compound 1, 0 h",BLD^a
same,metabolites observed in cellular extracts (% of total radioactivity),[1]; [2],BLD^a
same,metabolites observed in medium (% of total radioactivity),[1]; [2],BLD
same,metabolites observed in cellular extracts (% of total radioactivity),[1]; [3],4.34%
same,metabolites observed in medium (% of total radioactivity),[1]; [3],9.20% and 9.22%
same,metabolites observed in cellular extracts (% of total radioactivity),[1]; [4],9.05%
same,metabolites observed in medium (% of total radioactivity),[1]; [4],39% and 38.7%
same,metabolites observed in medium (% of total radioactivity),"[1]; human hepatocytes (lots Hu759, Hu775), 10 μM [^14C]-Compound 1, 0 h",BLD^b and BLD
same,metabolites observed in medium (% of total radioactivity),"[1]; human hepatocytes (lots Hu759, Hu775), 10 μM [^14C]-Compound 1, 1 h",BLD and BLD^a
same,metabolites observed in medium (% of total radioactivity),"[1]; human hepatocytes (lots Hu759, Hu775), 10 μM [^14C]-Compound 1, 4 h",1.7% and 1.6%
same,metabolites observed in medium (% of total radioactivity),"[1]; human hepatocytes (lots Hu759, Hu775), 10 μM [^14C]-Compound 1, 8 h",4.6% and 7%
same,metabolites observed in medium (% of total radioactivity),"[1]; human hepatocytes (lots Hu759, Hu775), 10 μM [^14C]-Compound 1, 24 h",22.1% and 29%
same,Major metabolites observed in cellular extracts (% of total radioactivity),[1]; 1 h,94.6 % of total radioactivity
same,Major metabolites observed in cellular extracts (% of total radioactivity),[1]; 8 h,65.8 % of total radioactivity
same,Major metabolites observed in cellular extracts (% of total radioactivity),[1]; 24 h,41.3 % of total radioactivity
same,metabolites observed in cellular extracts (% of total radioactivity),"rat primary hepatocytes; rat hepatocytes (Rs448, Rs458), 10 μM [^14C]-Compound 1, 1 h",1.84% and 1.75%
same,metabolites observed in cellular extracts (% of total radioactivity),"rat primary hepatocytes; rat hepatocytes (Rs448, Rs458), 10 μM [^14C]-Compound 1, 4 h",5.04% and 3.78%
same,metabolites observed in cellular extracts (% of total radioactivity),"rat primary hepatocytes; rat hepatocytes (Rs448, Rs458), 10 μM [^14C]-Compound 1, 8 h",8.77% and 4.95%
same,metabolites observed in cellular extracts (% of total radioactivity),"rat primary hepatocytes; rat hepatocytes (Rs448, Rs458), 10 μM [^14C]-Compound 1, 24 h",14.7% and 16.9%
same,metabolites observed in medium (% of total radioactivity),"rat primary hepatocytes; rat hepatocytes (Rs458), 1 μM [^14C]-Compound 1, 0 h",BLD
same,metabolites observed in cellular extracts (% of total radioactivity),rat primary hepatocytes; [5],1.01%
same,metabolites observed in medium (% of total radioactivity),rat primary hepatocytes; [5],BLD
same,metabolites observed in cellular extracts (% of total radioactivity),rat primary hepatocytes; [6],5.58%
same,metabolites observed in medium (% of total radioactivity),rat primary hepatocytes; [6],29.4%
same,metabolites observed in cellular extracts (% of total radioactivity),rat primary hepatocytes; [7],13.1%
same,metabolites observed in medium (% of total radioactivity),rat primary hepatocytes; [7],58% and 58.3%
same,metabolites observed in medium (% of total radioactivity),"rat primary hepatocytes; rat hepatocytes (lots Rs448, Rs458), 10 μM [^14C]-Compound 1, 0 h",BLD^b and BLD
same,metabolites observed in medium (% of total radioactivity),"rat primary hepatocytes; rat hepatocytes (lots Rs448, Rs458), 10 μM [^14C]-Compound 1, 1 h",0.8% and 0.5%
same,metabolites observed in medium (% of total radioactivity),"rat primary hepatocytes; rat hepatocytes (lots Rs448, Rs458), 10 μM [^14C]-Compound 1, 4 h",17.5% and 10.1% and 17.0% and 10.0%
same,metabolites observed in medium (% of total radioactivity),"rat primary hepatocytes; rat hepatocytes (lots Rs448, Rs458), 10 μM [^14C]-Compound 1, 8 h",41.5% and 23.4% and 41.0% and 23.0%
same,metabolites observed in medium (% of total radioactivity),"rat primary hepatocytes; rat hepatocytes (lots Rs448, Rs458), 10 μM [^14C]-Compound 1, 24 h",67% and 68.5% and 65.3% and 69.0% and 65.0%
same,Major metabolites observed in cellular extracts (% of total radioactivity),"rat primary hepatocytes; rat hepatocytes Rs448, 10 μM [^14C]-2′-C-methyl guanosine, 1 h",93.6 % of total radioactivity
same,Major metabolites observed in cellular extracts (% of total radioactivity),"rat primary hepatocytes; rat hepatocytes Rs448, 10 μM [^14C]-2′-C-methyl guanosine, 4 h",78.6 % of total radioactivity
same,Major metabolites observed in cellular extracts (% of total radioactivity),"rat primary hepatocytes; rat hepatocytes Rs448, 10 μM [^14C]-2′-C-methyl guanosine, 8 h",69.2 % of total radioactivity
same,Major metabolites observed in cellular extracts (% of total radioactivity),"rat primary hepatocytes; rat hepatocytes Rs448, 10 μM [^14C]-2′-C-methyl guanosine, 24 h",51.5 % of total radioactivity
same,Major metabolites observed in cellular extracts (% of total radioactivity),"rat primary hepatocytes; rat hepatocytes Rs458, 1 μM [^14C]-2′-C-methyl guanosine, 1 h",93.4 % of total radioactivity
same,Major metabolites observed in cellular extracts (% of total radioactivity),"rat primary hepatocytes; rat hepatocytes Rs458, 1 μM [^14C]-2′-C-methyl guanosine, 8 h",68.7 % of total radioactivity
same,Major metabolites observed in cellular extracts (% of total radioactivity),"rat primary hepatocytes; rat hepatocytes Rs458, 1 μM [^14C]-2′-C-methyl guanosine, 24 h",49.2 % of total radioactivity
same,Major metabolites observed in cellular extracts (% of total radioactivity),"rat primary hepatocytes; rat hepatocytes Rs458, 10 μM [^14C]-2′-C-methyl guanosine, 1 h",94.5 % of total radioactivity
same,Major metabolites observed in cellular extracts (% of total radioactivity),"rat primary hepatocytes; rat hepatocytes Rs458, 10 μM [^14C]-2′-C-methyl guanosine, 4 h",79.8 % of total radioactivity
same,Major metabolites observed in cellular extracts (% of total radioactivity),"rat primary hepatocytes; rat hepatocytes Rs458, 10 μM [^14C]-2′-C-methyl guanosine, 8 h",67.2 % of total radioactivity
same,Major metabolites observed in cellular extracts (% of total radioactivity),"rat primary hepatocytes; rat hepatocytes Rs458, 10 μM [^14C]-2′-C-methyl guanosine, 24 h",47.1 % of total radioactivity
